In brackets after ≈: the same amount, converted by molar mass. Several values for one entry are separate records, joined by “and”; a condition that tells them apart may be missing. Equal values may be shown once. Read-outs that look alike come from different tables or passages of the source. Positions of bridges follow the written chain, without caps; N, C: chain ends. Non-standard residues stand in square brackets, D forms with d. Residues, ends and D or L forms follow the SMILES beside them. No end group written: not given here. *: point of attachment. X1 = CC[C@H](C)CCCCC(=O)*; Dab = NCC[C@H](N)C(=O)O
What was measured:
[1] = test system: M. smegmatis mc^2155
Description: (§1) The antimicrobial activity for each peptide was determined through 3 h incubation time. The appropriate dilutions of each well were plated in triplicate and the extent of killing for the peptides were determined.
(§2) Briefly, 1 × 10^5 CFU per well of bacteria were incubated with different peptide concentrations in a 50 μL solution of Buffer Q consisting of 10 mM potassium phosphate buffer at pH 7.2 and 0.1% MB7H9 (3 h, 37 °C). Serial dilutions were then prepared in Buffer Q and plated in triplicate on MB7H9 plates, which were incubated (37 °C, 24 to 48 h) and CFUs counted. […] EC50 values were determined by plotting percent killing as a function of the log of peptide concentration (log μg/mL), and fitting the data from the antimicrobial assays to a standard sigmoidal dose-response curve, using Equation (1), where Y corresponds to bacterial killing (%) at a given peptide concentration (μg/mL), with X being the logarithm of that concentration (log μg/mL). In the equation, “Top” and “Bottom” refer to the upper and lower boundaries, and were constrained to values <100% and >0%, respectively.

[2] = test system: M. smegmatis; details: for MIC: 48 h
[3] = test system: M. smegmatis; details: for MIC Alone / MIC Combined (antibiotic): checkerboard; for MIC Alone: 37 °C, about 10^5 CFU/mL, single agent; for FIC (peptide) / FIC (antibiotic): MIC in combination/MIC alone; for FICI: FICI ≤ 0.5 synergy, 0.5-1.0 additive, 1.0-4.0 indifferent, > 4.0 antagonism
[4] = cited from earlier work
[5] = test system: M. smegmatis; experiment: microbe, parasite or virus in culture; details: Mycolicibacterium smegmatis, 48 h
[6] = test system: M. smegmatis mc^2155; experiment: microbe, parasite or virus in culture; details: Mycolicibacterium smegmatis, MC^2155, 3 h
Description: as §1, §2

[7] = test system: M. smegmatis; experiment: microbe, parasite or virus in culture; details: Mycolicibacterium smegmatis, 72 h, read-out: MIC Alone
[8] = test system: M. smegmatis; parameters: method as in earlier work; details: 10 μg/mL of LL-37; ref 9 (Sonawane et al.); cited from earlier work
[9] = test system: M. smegmatis membrane; experiment: Bacterial cytoplasmic membrane depolarization assay, DiSC3(5); type: cell-based, Mycobacterium smegmatis
Description: Membrane depolarization assay was studied using DiSC3(5) as previously reported. Depolarization of a membrane can be visualized by a […] in fluorescence. After interaction with intact cytoplasmic membrane, the fluorescent probe DiSC3(5) was quenched. After incubation with the antimicrobial peptide, the membrane potential was lost, and the probe was released to the medium, ensuing in an increase of fluorescence that can be quantified and monitored as a function of time. In brief, enumerated frozen bacteria were pelleted and washed twice in phosphate buffer (pH 7.2) and then resuspended to 4 × 10^7 CFU/mL in phosphate buffer containing 50 μg/mL DiSC3(5). Then, 100 uLs of this suspension was added to wells of a black 96-well plate. The plate was incubated in a TECAN Safire2 spectrofluorometer and monitored until fluorescence leveled off. Next, 100 μLs of various concentrations of peptide in phosphate buffer (pH 7.2) were added to each well. Bacteria without peptide and peptide without bacteria served as controls. The plate was immediately returned to the spectrofluorometer. Readings were taken every 15 s for 5 min (excitation = 622 nm; emission = 670 nm).
Figure 1 Membrane depolarization activity by LL-37, mCRAMP, hBD3-Pep4, ATRA-1A, ATRA-2, and NA-CATH. Depolarization determined using DiSC3(5) (50 μg/mL) at multiple concentrations of peptide (50, 25, 5, and 0.5 μg/mL). […]

[10] = test system: M. tuberculosis; details: LL-37 ref 30; hBD3 ref 33; cited from earlier work
Description: While the EC50 experiments are typically carried out in 10 mM phosphate buffer with pH 7.2 for 3 h, the Minimal Inhibitory Concentration (MIC) is determined in bacterial broth (resulting in a higher salt concentration) with a 48 h incubation. We confirmed the sensitivity of M. smegmatis to common antibiotics such as polymyxin B, rifampicin, and fosmidomycin [35, 36, 37]. […] The reported MIC of full-length hBD ...

[11] = test system: M. tuberculosis; details: 100 μg/mL of peptide; cited from earlier work
[12] = test system: M. smegmatis; experiment: Ethidium bromide uptake assay (membrane permeation); details: 50 μg/mL peptide, 10 μM ethidium bromide, examined at 20 min, 37 °C, n = 3, Figure 2
Description: Bacterial cytoplasmic membrane permeation is monitored by using the ethidium bromide uptake assay. […] M. smegmatis is grown until log phase in MB7H9 (Difco) broth with 2% (w/v) glucose as the carbon source, and 0.05% (v/v) Tween 80 in a shaking incubator (37 °C). Bacteria is centrifuged, washed with PBS, and then adjusted to an OD 600 nm of 0.1 Phosphate Buffer. 180 μL of bacteria is added to 10 μL ethidium bromide (10 μM final concentration) and 10 μL peptide in various concentrations, the experiment was performed in triplicate. The plate is read in a Tecan Safire^2 spectrofluorometer every 2 min for 30 min at 37 °C: (excitation = 540 nm, emission = 590 nm). Peak RFU at 20 min is used in Figure 2, and values were analyzed against wells with no peptide treatment with a Student’s t-test.
Permeablization of membrane after 20 min was compared. Experiments were performed in triplicate (n = 3).

[13] = in combination with polymyxin B
[14] = peptide combined with polymyxin B
[15] = same assay as μg/mL value, 3 h, 10 mM phosphate buffer
[16] = from EC50 in μM, above 1 = more potent than rifampicin
[17] = from MIC in μM, above 1 = less potent than rifampicin

RGRRSSRRKK-NH2 [hBD3-Pep4]
EC50 ([1]; mc^2155, 3 h): 287 nM
MIC [2]: 48.65 µM

CC[C@H](C)CCCCC(=O)N[C@@H](CCN)C(=O)N[C@H](C(=O)N[C@@H](CCN)C(=O)N[C@H]1CCNC(=O)[C@H]([C@@H](C)O)NC(=O)[C@H](CCN)NC(=O)[C@H](CCN)NC(=O)[C@H](CC(C)C)NC(=O)[C@@H](Cc2ccccc2)NC(=O)[C@H](CCN)NC1=O)[C@@H](C)O [Polymyxin B] (X1-[Dab]T[Dab][Dab][Dab][dF]L[Dab][Dab]T; lactam 4-C (inferred); N-terminus assumed)
MIC Alone ([3]; 72 h): 7.8 µg/mL
Fold vs. Rifampicin [1]: 1.65
EC50 ([1]; mc^2155, 3 h): 96 nM
Fold vs. Rifampicin (μM) [2]: 1.26
MIC [2]: 5.99 µM (≈ 7.21 µg/mL)

KRAKKFFKKLK-NH2 [ATRA-1A]
FIC (peptide) [3, 13]: 0.12
FICI [3, 14]: 0.37
FICI ([3]; peptide combined with rifampicin): 0.56
Hemolysis ([4]; compared to PBS (pH 7)): did not elicit statistically significant hemolysis
EC50 [1, 15]: 35 nM

CO[C@H]1/C=C/O[C@@]2(C)Oc3c(C)c(O)c4c(O)c(c(/C=N/N5CCN(C)CC5)c(O)c4c3C2=O)NC(=O)/C(C)=C\C=C\[C@H](C)[C@H](O)[C@@H](C)[C@@H](O)[C@@H](C)[C@H](OC(C)=O)[C@@H]1C [Rifampicin]
MIC Combined (antibiotic) ([3]; in combination with ATRA-1A, 72 h): 1.95 µg/mL
MIC Combined (antibiotic) ([3]; in combination with LL-37, 72 h): 0.97 µg/mL
MIC Combined (antibiotic) ([3]; in combination with hBD3-Pep4, 72 h): 1.95 µg/mL
MIC Combined (antibiotic) ([3]; in combination with mCRAMP, 72 h): 0.97 µg/mL
FIC (antibiotic) ([3]; in combination with ATRA-1A): 0.5
FIC (antibiotic) ([3]; in combination with LL-37): 0.25
FIC (antibiotic) ([3]; in combination with hBD3-Pep4): 0.5
FIC (antibiotic) ([3]; in combination with mCRAMP): 0.25
MIC [5]: 3.9 µg/mL and 4.73 µM
Fold vs. Rifampicin [1, 16]: 1.0
EC50 [6]: 159 nM
EC50 ([6]; pH 7.2): 0.13 µg/mL
MIC [7]: 3.9 µg/mL (≈ 4.74 µM)
Fold vs. Rifampicin (μM) [2, 17]: 1

GLLRKGGEKIGEKLKKIGQKIKNFFQKLVPQPEQ [mCRAMP]
Hemolytic activity [4]: no hemolytic activity
EC50 ([1]; mc^2155, 3 h): 44 nM
MIC [2]: 4.02 µM

CC[C@H](C)[C@H](NC(=O)[C@H](CCCCN)NC(=O)[C@H](CCC(=O)O)NC(=O)[C@H](CCCCN)NC(=O)[C@H](CO)NC(=O)[C@H](CCCCN)NC(=O)[C@H](CCCNC(=N)N)NC(=O)[C@H](Cc1ccccc1)NC(=O)[C@H](Cc1ccccc1)NC(=O)[C@H](CC(=O)O)NC(=O)CNC(=O)[C@H](CC(C)C)NC(=O)[C@@H](N)CC(C)C)C(=O)NCC(=O)N[C@@H](CCCCN)C(=O)N[C@@H](CCC(=O)O)C(=O)N[C@@H](Cc1ccccc1)C(=O)N[C@@H](CCCCN)C(=O)N[C@@H](CCCNC(=N)N)C(=O)N[C@H](C(=O)N[C@H](C(=O)N[C@@H](CCC(N)=O)C(=O)N[C@@H](CCCNC(=N)N)C(=O)N[C@H](C(=O)N[C@@H](CCCCN)C(=O)N[C@@H](CC(=O)O)C(=O)N[C@@H](Cc1ccccc1)C(=O)N[C@@H](CC(C)C)C(=O)N[C@@H](CCCNC(=N)N)C(=O)N[C@@H](CC(N)=O)C(=O)N[C@@H](CC(C)C)C(=O)N[C@H](C(=O)N1CCC[C@H]1C(=O)N[C@@H](CCCNC(=N)N)C(=O)N[C@H](C(=O)N[C@@H](CCC(=O)O)C(=O)N[C@@H](CO)C(=O)O)[C@@H](C)O)C(C)C)[C@@H](C)CC)C(C)C)[C@@H](C)CC [LL-37]
MIC Alone ([3]; 72 h): 31.3 µg/mL
FIC (peptide) [3, 13]: 0.12
FIC (peptide) ([3]; in combination with rifampicin): 0.12
FICI [3, 14]: 0.37
Intracellular killing [8]: 50%
Membrane depolarization ([9]; DiSC3(5) 50 μg/mL, within 1 min, peptide 50, 25, 5 and 0.5 μg/mL, phosphate buffer pH 7.2, n = 6, Figure 1): > 70%
Lowest concentration that depolarizes the M. smegmatis membrane ([9]; DiSC3(5), p < 0.001): ≤ 0.5 µg/mL
EC50 ([1]; 1 × 10^5 CFU per well, 10 mM potassium phosphate buffer pH 7.2 with 0.1% MB7H9, 3 h, 37 °C, CFU plated in triplicate, sigmoidal fit): 0.27 µg/mL
Fold vs. Rifampicin [1, 16]: 2.65
EC50 [1, 15]: 60 nM
MIC against M. tuberculosis [10]: 5 µg/mL (≈ 1.11 µM)
Fold vs. Rifampicin (μM) [2, 17]: 0.85
Killing of M. tuberculosis [11]: 65%
Extent of permeabilization (ethidium bromide uptake) [12]: very efficient

O=CN(O)CCCP(=O)(O)O [Fosmidomycin]
Fold vs. Rifampicin [1, 16]: 0.20
EC50 [6]: 780 nM
EC50 ([6]; pH 7.2): 0.14 µg/mL
Fold vs. Rifampicin (μM) [2, 17]: 0.39
